# ChEMBL document CHEMBL1255486, “Effect of vicriviroc on the QT/corrected QT interval and central nervous system in healthy subjects” (Antimicrob Agents Chemother, 2010)
# Key:
# Set-up in all cases: dose 400 mg/kg, route oral
# Conditions in all cases: in vivo
# [1] = test system: Homo sapiens; experiment: Toxicity in healthy human assessed as abdominal pain at 400 mg/kg, po administered as single dose; type: organism-based, Abdomen
# [2] = test system: Homo sapiens; experiment: Cardiotoxicity in healthy human assessed as change in corrected QT interval at 400 mg/kg, po within 12 hrs by ECG; type: toxicity, organism-based
# [3] = test system: Homo sapiens; experiment: Toxicity in healthy human assessed as headache at 400 […], po administered as single dose; type: organism-based
# [4] = test system: Homo sapiens; experiment: Cardiotoxicity in healthy human assessed as change in corrected QT interval at 400 mg/kg, po within 3 hrs by ECG; type: toxicity, organism-based
# [5] = test system: Homo sapiens; experiment: Toxicity in healthy human assessed as dizziness at 400 mg/kg, po administered as single dose; type: organism-based
# [6] = test system: Homo sapiens; experiment: Toxicity in healthy human assessed as diarrhea at 400 mg/kg, po administered as single dose; type: organism-based
# [7] = test system: Homo sapiens; experiment: Toxicity in healthy human assessed as nausea at 400 […], po administered as single dose; type: organism-based
compound,measurement,setting,value
COc1c(N2C[C@@H]3CCCN[C@@H]3C2)c(F)cc2c(=O)c(C(=O)O)cn(C3CC3)c12 [MOXIFLOXACIN],Activity,[1],5%
same,QTc change,[2],10 ms
same,Activity,[3],5%
same,Activity,[4],Non-toxic
same,Activity,[5],0%
same,Activity,[6],3%
same,Activity,[7],3%
